Measurements reported in patent US20240158446A1, “CYCLIC COMPOUND HAVING SELECTIVE INHIBITORY ACTION ON KRAS OVER HRAS AND NRAS” (CHUGAI SEIYAKU KABUSHIKI KAISHA, priority 2021, published 2024).

How the values were obtained:
[1] = biological target: GDP-bound HRAS wild-type protein (Homo sapiens, UniProt P01112); test: Binding to HRAS by surface plasmon resonance (SPR), Single Cycle Kinetics; conditions: SPR, GDP-bound HRAS wild-type protein vs GDP-bound KRAS wild-type protein
[2] = biological target: GDP-bound NRAS wild-type protein (Homo sapiens, UniProt P01111); test: Binding to NRAS by surface plasmon resonance (SPR), Single Cycle Kinetics; conditions: SPR, GDP-bound NRAS wild-type protein vs GDP-bound KRAS wild-type protein
Sequence of GDP-bound NRAS wild-type protein (P01111 whole entry): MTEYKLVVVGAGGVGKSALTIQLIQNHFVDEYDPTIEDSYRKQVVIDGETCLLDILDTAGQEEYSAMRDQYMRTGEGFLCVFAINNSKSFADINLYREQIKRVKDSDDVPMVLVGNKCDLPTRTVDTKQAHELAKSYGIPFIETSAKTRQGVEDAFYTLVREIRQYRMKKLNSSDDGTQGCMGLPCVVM

[3] = biological target: GDP-bound KRAS wild-type protein (Homo sapiens, UniProt P01116); test: Binding to KRAS by surface plasmon resonance (SPR), Single Cycle Kinetics; conditions: SPR, Single Cycle Kinetics, GDP-bound KRAS wild-type protein; read-out: KRAS KD
Sequence of GDP-bound KRAS wild-type protein (P01116 whole entry): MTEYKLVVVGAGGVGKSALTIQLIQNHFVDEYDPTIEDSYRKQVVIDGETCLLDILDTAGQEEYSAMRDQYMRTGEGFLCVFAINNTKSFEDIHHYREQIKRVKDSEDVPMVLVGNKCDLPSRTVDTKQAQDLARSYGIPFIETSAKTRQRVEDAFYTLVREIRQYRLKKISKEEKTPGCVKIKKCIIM

Sequence of GDP-bound HRAS wild-type protein (P01112 whole entry): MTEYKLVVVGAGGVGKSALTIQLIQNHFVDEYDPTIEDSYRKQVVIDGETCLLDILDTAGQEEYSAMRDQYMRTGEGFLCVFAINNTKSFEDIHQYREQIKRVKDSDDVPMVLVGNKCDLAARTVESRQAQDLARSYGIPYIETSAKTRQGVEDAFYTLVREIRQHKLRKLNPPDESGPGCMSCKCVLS

SMILES: CC[C@H](C)[C@@H]1NC(=O)[C@H](CC(C)C)N(C)C(=O)C[C@@H](C(=O)N2CCOCC2)N(C)C(=O)[C@H](C2CCCC2)N(C)C(=O)C2(CCC2)NC(=O)[C@@H]2C[C@@H](OC)CN2C(=O)[C@H](CCc2cc(F)c(C(F)(F)F)c(F)c2)NC(=O)CN(C)C(=O)[C@H](Cc2ccc(C(F)(F)F)cc2)N2CCCCC[C@@H](C2=O)N(C)C(=O)CN(C)C1=O [PP1016]
- HRAS/KRAS (ratio of KD value for HRAS to KD value for KRAS) [1]: B (a compound having 3 or more and less than 10 is denoted as B)
- NRAS/KRAS (ratio of KD value for NRAS to KD value for KRAS) [2]: A (a compound having 10 or more and less than 20 is denoted as A)
- Kd [3]: 0.27 nM

SMILES: CCO[C@@H]1C[C@H]2C(=O)NC3(CCCC3)C(=O)N(C)[C@@H](C3CCCC3)C(=O)N(C)[C@H](C(=O)N(C)C)CC(=O)N(C)[C@@H](CC(C)C)C(=O)N[C@@H]([C@@H](C)CC)C(=O)N(C)CC(=O)N(C)[C@H]3C[C@@H](C)CCN(C3=O)[C@@H](Cc3ccc(C(F)(F)F)cc3)C(=O)N(C)CC(=O)N[C@@H](CCc3cc(F)c(C(F)(F)F)c(F)c3)C(=O)N2C1 [PP1017]
- HRAS/KRAS (ratio of KD value for HRAS to KD value for KRAS) [1]: B (a compound having 3 or more and less than 10 is denoted as B)
- NRAS/KRAS (ratio of KD value for NRAS to KD value for KRAS) [2]: C (A compound having a KD ratio of 0.1 or more and less than 3 is denoted as C)
- Kd [3]: 0.048 nM

SMILES: CCO[C@@H]1C[C@H]2C(=O)NC3(CCC3)C(=O)N(C)[C@@H](C3CCCC3)C(=O)N(C)[C@H](C(=O)N(C)C)CC(=O)N(C)[C@@H](CC(C)C)C(=O)N[C@@H]([C@@H](C)CC)C(=O)N3CC[C@H]3C(=O)N(C)[C@H]3C[C@@H](C)CCN(C3=O)[C@@H](Cc3ccc(C(F)(F)F)cc3)C(=O)N(C)CC(=O)N[C@@H](CCc3cc(F)c(C(F)(F)F)c(F)c3)C(=O)N2C1 [PP1019]
- HRAS/KRAS (ratio of KD value for HRAS to KD value for KRAS) [1]: B (a compound having 3 or more and less than 10 is denoted as B)
- NRAS/KRAS (ratio of KD value for NRAS to KD value for KRAS) [2]: C (A compound having a KD ratio of 0.1 or more and less than 3 is denoted as C)
- Kd [3]: 0.055 nM

SMILES: CCO[C@@H]1C[C@H]2C(=O)NC3(CCC3)C(=O)N(C)[C@@H](C3CCCC3)C(=O)N(C)[C@H](C(=O)N(C)C)CC(=O)N(C)[C@@H](CC)C(=O)N[C@@H]([C@@H](C)CC)C(=O)N(C)CC(=O)N(C)[C@H]3C[C@@H](C)CCN(C3=O)[C@@H](Cc3ccc(C(F)(F)F)cc3)C(=O)N(C)CC(=O)N[C@@H](CCc3cc(F)c(C(F)(F)F)c(F)c3)C(=O)N2C1 [PP1020]
- HRAS/KRAS (ratio of KD value for HRAS to KD value for KRAS) [1]: B (a compound having 3 or more and less than 10 is denoted as B)
- NRAS/KRAS (ratio of KD value for NRAS to KD value for KRAS) [2]: C (A compound having a KD ratio of 0.1 or more and less than 3 is denoted as C)
- Kd [3]: 0.022 nM

SMILES: CCO[C@@H]1C[C@H]2C(=O)NC3(CCC3)C(=O)N(C)[C@@H](C3CCCC3)C(=O)N(C)[C@H](C(=O)N(C)C)CC(=O)N(C)[C@@H](CC)C(=O)N[C@@H]([C@@H](C)CC)C(=O)N3CC[C@H]3C(=O)N(C)[C@H]3C[C@@H](C)CCN(C3=O)[C@@H](Cc3ccc(C(F)(F)F)cc3)C(=O)N(C)CC(=O)N[C@@H](CCc3cc(F)c(C(F)(F)F)c(F)c3)C(=O)N2C1 [PP1021]
- HRAS/KRAS (ratio of KD value for HRAS to KD value for KRAS) [1]: B (a compound having 3 or more and less than 10 is denoted as B)
- NRAS/KRAS (ratio of KD value for NRAS to KD value for KRAS) [2]: C (A compound having a KD ratio of 0.1 or more and less than 3 is denoted as C)
- Kd [3]: 0.057 nM

SMILES: CCO[C@@H]1C[C@H]2C(=O)NC3(CCCC3)C(=O)N(C)[C@@H](C3CCCC3)C(=O)N(C)[C@H](C(=O)N(C)C)CC(=O)N(C)[C@@H](CC)C(=O)N[C@@H]([C@@H](C)CC)C(=O)N(C)CC(=O)N(C)[C@H]3C[C@@H](C)CCN(C3=O)[C@@H](Cc3ccc(C(F)(F)F)cc3)C(=O)N(C)CC(=O)N[C@@H](CCc3cc(F)c(C(F)(F)F)c(F)c3)C(=O)N2C1 [PP1022]
- HRAS/KRAS (ratio of KD value for HRAS to KD value for KRAS) [1]: B (a compound having 3 or more and less than 10 is denoted as B)
- NRAS/KRAS (ratio of KD value for NRAS to KD value for KRAS) [2]: C (A compound having a KD ratio of 0.1 or more and less than 3 is denoted as C)
- Kd [3]: 0.036 nM

SMILES: CCO[C@@H]1C[C@H]2C(=O)NC3(CCCC3)C(=O)N(C)[C@@H](C3CCCC3)C(=O)N(C)[C@H](C(=O)N3CCOCC3)CC(=O)N(C)[C@@H](CC(C)C)C(=O)N[C@@H]([C@@H](C)CC)C(=O)N(C)CC(=O)N(C)[C@H]3C[C@@H](C)CCN(C3=O)[C@@H](Cc3ccc(C(F)(F)F)cc3)C(=O)N(C)CC(=O)N[C@@H](CCc3cc(F)c(C(F)(F)F)c(F)c3)C(=O)N2C1 [PP1024]
- HRAS/KRAS (ratio of KD value for HRAS to KD value for KRAS) [1]: B (a compound having 3 or more and less than 10 is denoted as B)
- NRAS/KRAS (ratio of KD value for NRAS to KD value for KRAS) [2]: B (a compound having 3 or more and less than 10 is denoted as B)
- Kd [3]: 0.088 nM

SMILES: CCO[C@@H]1C[C@H]2C(=O)NC3(CCC3)C(=O)N(C)[C@@H](C3CCCC3)C(=O)N(C)[C@H](C(=O)N3CCOCC3)CC(=O)N(C)[C@@H](CC(C)C)C(=O)N[C@@H]([C@@H](C)CC)C(=O)N(C)CC(=O)N(C)[C@H]3C[C@@H](C)CCN(C3=O)[C@@H](Cc3ccc(C(F)(F)F)cc3)C(=O)N(C)CC(=O)N[C@@H](CCc3cc(F)c(C(F)(F)F)c(F)c3)C(=O)N2C1 [PP1025]
- HRAS/KRAS (ratio of KD value for HRAS to KD value for KRAS) [1]: B (a compound having 3 or more and less than 10 is denoted as B)
- NRAS/KRAS (ratio of KD value for NRAS to KD value for KRAS) [2]: C (A compound having a KD ratio of 0.1 or more and less than 3 is denoted as C)
- Kd [3]: 0.056 nM

SMILES: CCO[C@@H]1C[C@H]2C(=O)NC3(CCC3)C(=O)N(C)[C@@H](C3CCCC3)C(=O)N(C)[C@H](C(=O)N3CCOCC3)CC(=O)N(C)[C@@H](CC)C(=O)N[C@@H]([C@@H](C)CC)C(=O)N(C)CC(=O)N(C)[C@H]3C[C@@H](C)CCN(C3=O)[C@@H](Cc3ccc(C(F)(F)F)cc3)C(=O)N(C)CC(=O)N[C@@H](CCc3cc(F)c(C(F)(F)F)c(F)c3)C(=O)N2C1 [PP1027]
- HRAS/KRAS (ratio of KD value for HRAS to KD value for KRAS) [1]: B (a compound having 3 or more and less than 10 is denoted as B)
- NRAS/KRAS (ratio of KD value for NRAS to KD value for KRAS) [2]: C (A compound having a KD ratio of 0.1 or more and less than 3 is denoted as C)
- Kd [3]: 0.056 nM

SMILES: CCO[C@@H]1C[C@H]2C(=O)NC3(CCC3)C(=O)N(C)[C@@H](C3CCCC3)C(=O)N(C)[C@H](C(=O)N3CCOCC3)CC(=O)N(C)[C@@H](CC)C(=O)N[C@@H]([C@@H](C)CC)C(=O)N3CC[C@H]3C(=O)N(C)[C@H]3C[C@@H](C)CCN(C3=O)[C@@H](Cc3ccc(C(F)(F)F)cc3)C(=O)N(C)CC(=O)N[C@@H](CCc3cc(F)c(C(F)(F)F)c(F)c3)C(=O)N2C1 [PP1028]
- HRAS/KRAS (ratio of KD value for HRAS to KD value for KRAS) [1]: B (a compound having 3 or more and less than 10 is denoted as B)
- NRAS/KRAS (ratio of KD value for NRAS to KD value for KRAS) [2]: B (a compound having 3 or more and less than 10 is denoted as B)
- Kd [3]: 0.099 nM

SMILES: CCO[C@@H]1C[C@H]2C(=O)NC3(CCCC3)C(=O)N(C)[C@@H](C3CCCC3)C(=O)N(C)[C@H](C(=O)N3CCOCC3)CC(=O)N(C)[C@@H](CC)C(=O)N[C@@H]([C@@H](C)CC)C(=O)N(C)CC(=O)N(C)[C@H]3C[C@@H](C)CCN(C3=O)[C@@H](Cc3ccc(C(F)(F)F)cc3)C(=O)N(C)CC(=O)N[C@@H](CCc3cc(F)c(C(F)(F)F)c(F)c3)C(=O)N2C1 [PP1029]
- HRAS/KRAS (ratio of KD value for HRAS to KD value for KRAS) [1]: B (a compound having 3 or more and less than 10 is denoted as B)
- NRAS/KRAS (ratio of KD value for NRAS to KD value for KRAS) [2]: C (A compound having a KD ratio of 0.1 or more and less than 3 is denoted as C)
- Kd [3]: 0.078 nM

SMILES: CCO[C@@H]1C[C@H]2C(=O)NC3(CCCC3)C(=O)N(C)[C@@H](C3CCCC3)C(=O)N(C)[C@H](C(=O)N(C)C)CC(=O)N(C)[C@@H](CC(C)C)C(=O)N[C@@H]([C@@H](C)CC)C(=O)N(C)CC(=O)N(C)[C@H]3CC(C)=CCN(C3=O)[C@@H](Cc3ccc(C(F)(F)F)cc3)C(=O)N(C)CC(=O)N[C@@H](CCc3cc(F)c(C(F)(F)F)c(F)c3)C(=O)N2C1 [PP1031]
- HRAS/KRAS (ratio of KD value for HRAS to KD value for KRAS) [1]: C (A compound having a KD ratio of 0.1 or more and less than 3 is denoted as C)
- NRAS/KRAS (ratio of KD value for NRAS to KD value for KRAS) [2]: C (A compound having a KD ratio of 0.1 or more and less than 3 is denoted as C)
- Kd [3]: 0.67 nM

SMILES: CCO[C@@H]1C[C@H]2C(=O)NC3(CCC3)C(=O)N(C)[C@@H](C3CCCC3)C(=O)N(C)[C@H](C(=O)N(C)C)CC(=O)N(C)[C@@H](CC(C)C)C(=O)N[C@@H]([C@@H](C)CC)C(=O)N3CC[C@H]3C(=O)N(C)[C@H]3CC(C)=CCN(C3=O)[C@@H](Cc3ccc(C(F)(F)F)cc3)C(=O)N(C)CC(=O)N[C@@H](CCc3cc(F)c(C(F)(F)F)c(F)c3)C(=O)N2C1 [PP1033]
- HRAS/KRAS (ratio of KD value for HRAS to KD value for KRAS) [1]: C (A compound having a KD ratio of 0.1 or more and less than 3 is denoted as C)
- NRAS/KRAS (ratio of KD value for NRAS to KD value for KRAS) [2]: C (A compound having a KD ratio of 0.1 or more and less than 3 is denoted as C)
- Kd [3]: 0.43 nM

SMILES: CCO[C@@H]1C[C@H]2C(=O)NC3(CCC3)C(=O)N(C)[C@@H](C3CCCC3)C(=O)N(C)[C@H](C(=O)N(C)C)CC(=O)N(C)[C@@H](CC)C(=O)N[C@@H]([C@@H](C)CC)C(=O)N(C)CC(=O)N(C)[C@H]3CC(C)=CCN(C3=O)[C@@H](Cc3ccc(C(F)(F)F)cc3)C(=O)N(C)CC(=O)N[C@@H](CCc3cc(F)c(C(F)(F)F)c(F)c3)C(=O)N2C1 [PP1034]
- HRAS/KRAS (ratio of KD value for HRAS to KD value for KRAS) [1]: C (A compound having a KD ratio of 0.1 or more and less than 3 is denoted as C)
- NRAS/KRAS (ratio of KD value for NRAS to KD value for KRAS) [2]: C (A compound having a KD ratio of 0.1 or more and less than 3 is denoted as C)
- Kd [3]: 0.43 nM
